{"source": "ChEMBL document CHEMBL1201862", "about": "“PubChem BioAssay data set” (2004)", "key": {"[1]": {"biological_target": "T1, Intestinal-type alkaline phosphatase (Homo sapiens, UniProt P09923)", "T1 sequence (P09923 whole entry)": "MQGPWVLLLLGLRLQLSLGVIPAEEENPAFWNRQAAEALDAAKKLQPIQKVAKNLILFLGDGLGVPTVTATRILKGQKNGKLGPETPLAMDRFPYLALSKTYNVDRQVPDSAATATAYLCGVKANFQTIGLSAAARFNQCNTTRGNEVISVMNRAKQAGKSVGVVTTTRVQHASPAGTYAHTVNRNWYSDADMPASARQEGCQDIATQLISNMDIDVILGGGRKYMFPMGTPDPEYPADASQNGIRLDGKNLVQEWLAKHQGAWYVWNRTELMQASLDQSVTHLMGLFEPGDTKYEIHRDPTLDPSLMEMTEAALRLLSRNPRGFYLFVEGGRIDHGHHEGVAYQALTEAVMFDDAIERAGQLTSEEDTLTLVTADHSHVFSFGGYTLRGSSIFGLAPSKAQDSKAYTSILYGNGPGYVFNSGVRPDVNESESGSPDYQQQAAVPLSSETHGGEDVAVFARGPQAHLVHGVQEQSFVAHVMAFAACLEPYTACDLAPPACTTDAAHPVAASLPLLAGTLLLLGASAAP", "test": "Dose Response confirmation of uHTS hits from a small molecule inhibitors of human intestinal alkaline phosphatase via a luminescent assay. [Related pubchem assays (depositor defined):AID2544, AID2574]", "assay_type": "functional"}, "[2]": {"biological_target": "T1, Intestinal-type alkaline phosphatase", "test": "human intestinal alkaline phosphatase activators, dose response, biochemical, luminescence, uHTS hits (AID 463120)", "assay_type": "functional"}, "Troponin, cardiac muscle": {"biological_target": "Troponin, cardiac muscle (Homo sapiens, UniProt P19429+P45379+P63316)", "test": "Fluorescence-based biochemical high throughput dose response assay for activators of the calcium sensitivity of cardiac Regulated Thin Filaments (RTF). [Related pubchem assays (depositor defined):AID493008, AID493018, AID504382, AID504383]", "assay_type": "protein-complex assay"}, "[3]": {"biological_target": "Disintegrin and metalloproteinase domain-containing protein 17 (Homo sapiens, UniProt P78536)", "sequence (P78536 whole entry, the tested form may be a part)": "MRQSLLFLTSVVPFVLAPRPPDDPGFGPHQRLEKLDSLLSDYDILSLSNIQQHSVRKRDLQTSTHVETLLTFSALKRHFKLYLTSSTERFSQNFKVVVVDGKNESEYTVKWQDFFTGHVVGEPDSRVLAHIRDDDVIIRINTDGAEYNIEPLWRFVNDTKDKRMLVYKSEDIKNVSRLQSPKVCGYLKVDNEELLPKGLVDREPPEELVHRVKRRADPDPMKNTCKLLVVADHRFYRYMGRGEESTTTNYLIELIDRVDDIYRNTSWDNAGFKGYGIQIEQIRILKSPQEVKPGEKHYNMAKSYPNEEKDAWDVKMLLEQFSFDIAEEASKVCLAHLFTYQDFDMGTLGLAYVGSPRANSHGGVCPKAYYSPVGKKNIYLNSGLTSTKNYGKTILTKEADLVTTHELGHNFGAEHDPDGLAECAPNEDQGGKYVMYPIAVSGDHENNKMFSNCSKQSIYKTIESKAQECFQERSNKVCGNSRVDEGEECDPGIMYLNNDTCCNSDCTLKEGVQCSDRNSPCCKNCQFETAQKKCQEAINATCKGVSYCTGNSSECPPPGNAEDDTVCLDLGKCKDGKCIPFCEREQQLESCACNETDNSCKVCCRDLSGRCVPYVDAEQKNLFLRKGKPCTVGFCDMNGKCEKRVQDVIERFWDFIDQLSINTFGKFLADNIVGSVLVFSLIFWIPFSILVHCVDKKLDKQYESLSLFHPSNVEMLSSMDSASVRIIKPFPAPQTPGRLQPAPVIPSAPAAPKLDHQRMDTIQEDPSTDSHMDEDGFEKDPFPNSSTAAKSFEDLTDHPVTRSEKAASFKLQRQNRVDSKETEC", "test": "exosite inhibitors of ADAM17, dose response, biochemical (AID 743260)"}, "[4]": {"test": "inhibition of ADAM10 peptide cleavage – biochemical, FRET peptide substrate, recombinant human ADAM10, selectivity assay for ADAM17 exosite inhibitor project, dose response (AID 743259);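 further: ADAM10 enzyme cleaving a FRET peptide substrate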"}, "[5]": {"system": "Streptococcus sp. 'group A'", "test": "Streptococcus pyogenes SK(-)GAS viability under kanamycin – luminescence, BacTiterGlo, confirmation, counter-screen for streptokinase expression inhibitor project, dose response (AID 1900)", "assay_type": "functional, organism-based"}, "Ion channel NompC": {"biological_target": "Ion channel NompC (Danio rerio, UniProt Q7T1G6)", "test": "Dose response cell-based high-throughput screening assay for agonists of the transient receptor potential channel N1 (TRPN1). [Related pubchem assays (depositor defined):AID1424, AID1448]", "assay_type": "functional"}, "Mucolipin-3": {"biological_target": "T2, Mucolipin-3 (Homo sapiens, UniProt Q8TDD5)", "T2 sequence (Q8TDD5 whole entry)": "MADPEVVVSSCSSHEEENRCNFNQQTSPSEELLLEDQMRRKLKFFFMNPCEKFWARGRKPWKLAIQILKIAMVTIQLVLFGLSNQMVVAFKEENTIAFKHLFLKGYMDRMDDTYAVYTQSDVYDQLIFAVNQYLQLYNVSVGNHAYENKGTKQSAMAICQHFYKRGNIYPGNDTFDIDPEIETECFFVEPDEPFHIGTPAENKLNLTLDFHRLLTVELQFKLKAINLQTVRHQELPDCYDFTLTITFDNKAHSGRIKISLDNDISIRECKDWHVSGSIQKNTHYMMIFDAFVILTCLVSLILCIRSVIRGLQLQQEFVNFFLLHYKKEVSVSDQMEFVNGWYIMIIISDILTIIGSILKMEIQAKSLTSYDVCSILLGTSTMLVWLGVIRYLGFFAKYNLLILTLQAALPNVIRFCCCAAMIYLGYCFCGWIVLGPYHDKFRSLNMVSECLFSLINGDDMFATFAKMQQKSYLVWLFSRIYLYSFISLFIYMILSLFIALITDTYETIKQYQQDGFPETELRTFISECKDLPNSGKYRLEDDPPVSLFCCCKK", "test": "Fluorescence counterscreen assay for […] agonists: dose response cell-based high-throughput screening assay to identify agonists of the transient receptor potential channel ML3 (TRPML3). [Related pubchem assays: 1424, 1448 ]", "assay_type": "functional"}, "Streptococcus": {"system": "Streptococcus", "test": "GAS UMAA2166 growth inhibition – luminescence, BacTiterGlo, counter-screen for streptokinase expression inhibitor project, dose response (AID 1915);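 further: potency for reduction of bacterial viability or growth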", "assay_type": "functional, organism-based"}, "[6]": {"biological_target": "Voltage-dependent T-type calcium channel subunit alpha-1H (Homo sapiens, UniProt O95180)", "sequence (O95180 whole entry)": "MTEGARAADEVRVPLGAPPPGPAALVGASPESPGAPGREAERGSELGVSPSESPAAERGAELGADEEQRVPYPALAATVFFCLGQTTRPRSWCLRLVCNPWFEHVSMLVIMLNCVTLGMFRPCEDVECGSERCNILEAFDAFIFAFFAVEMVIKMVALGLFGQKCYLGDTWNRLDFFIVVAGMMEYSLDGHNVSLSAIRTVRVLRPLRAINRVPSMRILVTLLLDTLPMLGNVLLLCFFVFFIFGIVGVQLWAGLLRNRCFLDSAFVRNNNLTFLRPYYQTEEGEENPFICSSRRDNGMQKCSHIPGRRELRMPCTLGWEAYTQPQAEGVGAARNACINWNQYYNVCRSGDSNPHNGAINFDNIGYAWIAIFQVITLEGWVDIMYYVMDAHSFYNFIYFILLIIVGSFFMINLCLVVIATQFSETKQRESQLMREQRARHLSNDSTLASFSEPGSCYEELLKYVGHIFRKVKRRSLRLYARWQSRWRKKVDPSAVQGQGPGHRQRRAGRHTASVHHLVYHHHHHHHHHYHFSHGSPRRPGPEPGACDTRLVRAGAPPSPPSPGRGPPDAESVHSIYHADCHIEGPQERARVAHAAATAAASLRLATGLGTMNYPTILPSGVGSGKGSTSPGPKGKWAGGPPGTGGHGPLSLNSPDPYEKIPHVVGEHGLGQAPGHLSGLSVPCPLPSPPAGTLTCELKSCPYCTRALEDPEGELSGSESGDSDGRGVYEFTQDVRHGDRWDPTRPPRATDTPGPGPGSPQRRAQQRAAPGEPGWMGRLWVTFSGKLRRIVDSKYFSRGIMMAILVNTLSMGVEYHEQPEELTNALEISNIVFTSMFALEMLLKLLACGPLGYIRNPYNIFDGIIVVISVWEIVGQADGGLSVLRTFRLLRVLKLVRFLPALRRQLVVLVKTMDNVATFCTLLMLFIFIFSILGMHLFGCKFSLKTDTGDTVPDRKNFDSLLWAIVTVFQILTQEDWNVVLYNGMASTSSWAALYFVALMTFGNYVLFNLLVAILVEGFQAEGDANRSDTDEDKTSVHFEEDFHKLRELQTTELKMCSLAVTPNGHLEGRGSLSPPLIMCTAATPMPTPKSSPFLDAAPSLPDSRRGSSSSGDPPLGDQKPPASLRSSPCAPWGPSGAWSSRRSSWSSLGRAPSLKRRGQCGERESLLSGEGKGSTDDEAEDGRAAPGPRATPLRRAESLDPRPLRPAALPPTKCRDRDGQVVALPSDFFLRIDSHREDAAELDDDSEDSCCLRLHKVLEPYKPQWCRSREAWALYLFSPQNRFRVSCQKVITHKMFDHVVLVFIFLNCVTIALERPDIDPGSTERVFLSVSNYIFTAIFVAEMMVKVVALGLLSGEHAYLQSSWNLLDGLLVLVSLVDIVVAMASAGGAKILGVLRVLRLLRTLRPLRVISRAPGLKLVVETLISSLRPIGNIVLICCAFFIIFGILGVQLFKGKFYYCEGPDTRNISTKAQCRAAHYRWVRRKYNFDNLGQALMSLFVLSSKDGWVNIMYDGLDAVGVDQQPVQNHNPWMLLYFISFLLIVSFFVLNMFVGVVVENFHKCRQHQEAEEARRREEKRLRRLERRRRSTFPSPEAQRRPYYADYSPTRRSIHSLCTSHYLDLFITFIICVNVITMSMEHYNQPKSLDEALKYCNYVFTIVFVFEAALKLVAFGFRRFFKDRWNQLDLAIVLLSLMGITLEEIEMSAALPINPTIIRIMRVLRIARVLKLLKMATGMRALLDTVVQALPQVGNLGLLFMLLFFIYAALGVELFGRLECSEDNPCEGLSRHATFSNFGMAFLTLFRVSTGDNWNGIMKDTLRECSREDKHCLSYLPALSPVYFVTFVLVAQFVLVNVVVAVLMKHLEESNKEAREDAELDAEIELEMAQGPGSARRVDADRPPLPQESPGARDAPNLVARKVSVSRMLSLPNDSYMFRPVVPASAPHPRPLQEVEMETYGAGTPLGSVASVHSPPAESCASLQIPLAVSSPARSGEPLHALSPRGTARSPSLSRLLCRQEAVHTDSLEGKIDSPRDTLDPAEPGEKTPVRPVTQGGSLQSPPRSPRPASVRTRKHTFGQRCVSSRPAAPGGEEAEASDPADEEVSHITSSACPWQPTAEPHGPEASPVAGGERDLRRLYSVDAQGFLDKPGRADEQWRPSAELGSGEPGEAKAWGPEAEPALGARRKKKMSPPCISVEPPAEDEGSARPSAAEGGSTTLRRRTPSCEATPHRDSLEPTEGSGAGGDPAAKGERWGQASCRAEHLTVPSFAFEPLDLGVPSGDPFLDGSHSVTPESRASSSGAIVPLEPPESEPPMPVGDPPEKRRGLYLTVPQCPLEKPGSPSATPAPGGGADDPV", "test": "human CACNA1H calcium influx blockade – cell-based, synthetic library set 2, HEK293 HH8, Fluo-4, SAR follow-up (AID 493023)", "assay_type": "functional"}}, "note": "Calls of active or inactive are those of the source.", "data": [{"smiles": "CC(C)CCNC(=O)C1CCN(C(=O)N(C)C)CC1", "values": [{"measurement": "IC50", "setting": "[1]", "result": "> 100 µM (inactive)"}, {"measurement": "EC50", "setting": "[2]", "result": "> 100 µM (inactive)"}]}, {"smiles": "CCC(C(=O)O)N1C(=O)/C(=C/c2cccn2C)SC1=S", "note": "(stereo unspecified)", "values": [{"measurement": "EC50", "setting": "Troponin, cardiac muscle", "result": "14.4 µM (inactive)"}, {"measurement": "IC50", "setting": "[3]", "result": "> 23.2 µM (inactive)"}, {"measurement": "IC50", "setting": "[4]", "result": "12.5 µM (inactive)"}]}, {"smiles": "CCOc1cc(/C=C(\\C#N)c2nc(-c3cccs3)c(NC(C)=O)s2)ccc1O", "values": [{"measurement": "EC50", "setting": "[5]", "result": "0.628 µM (active)"}, {"measurement": "EC50", "setting": "Ion channel NompC", "result": "13.4 µM (inactive)"}, {"measurement": "EC50", "setting": "Mucolipin-3", "result": "> 29.9 µM (not active)"}, {"measurement": "EC50", "setting": "Streptococcus", "result": "2.02 µM (active)"}]}, {"smiles": "O=C(N[C@H]1CCCN(Cc2ccccc2)C1)c1ccc(Cl)cc1Cl", "values": [{"measurement": "EC50", "setting": "[6]", "result": "10 µM (active)"}]}, {"smiles": "CC(C)(C)CCN1CCC[C@H](NC(=O)c2cc(Cl)cc(Cl)c2)C1", "values": [{"measurement": "EC50", "setting": "[6]", "result": "10 µM (active)"}]}]}
